Assay results published in article PMC11020753, “Contribution of amino acids in the active site of dipeptidyl peptidase 4 to the catalytic action of the enzyme” (PLOS ONE, 2024).
Where two headings read alike, the source gives them in different places. Non-standard residues stand in square brackets, D forms with d. Residues, ends and D or L forms follow the SMILES beside them. *: point of attachment. AMC = Cc1cc(=O)oc2cc(N*)ccc12; Tle = CC(C)(C)[C@H](N)C(=O)O

Experiments:
Format in all cases: biochemical
DP4 variant N710Q [1] = biological target: T1, DP4 variant N710Q (Homo sapiens, UniProt P27487, N710Q); assay: Hydrolysis of dipeptide-AMC substrates (fluorescence)
T1 construct: His(6)-37-766 hDP4 containing fractions were concentrated to 1 ml; made in house; host or cells: Pichia pastoris X-33 (vector pPICZα C, secreted)
T1 sequence (P27487 37-766 N710Q): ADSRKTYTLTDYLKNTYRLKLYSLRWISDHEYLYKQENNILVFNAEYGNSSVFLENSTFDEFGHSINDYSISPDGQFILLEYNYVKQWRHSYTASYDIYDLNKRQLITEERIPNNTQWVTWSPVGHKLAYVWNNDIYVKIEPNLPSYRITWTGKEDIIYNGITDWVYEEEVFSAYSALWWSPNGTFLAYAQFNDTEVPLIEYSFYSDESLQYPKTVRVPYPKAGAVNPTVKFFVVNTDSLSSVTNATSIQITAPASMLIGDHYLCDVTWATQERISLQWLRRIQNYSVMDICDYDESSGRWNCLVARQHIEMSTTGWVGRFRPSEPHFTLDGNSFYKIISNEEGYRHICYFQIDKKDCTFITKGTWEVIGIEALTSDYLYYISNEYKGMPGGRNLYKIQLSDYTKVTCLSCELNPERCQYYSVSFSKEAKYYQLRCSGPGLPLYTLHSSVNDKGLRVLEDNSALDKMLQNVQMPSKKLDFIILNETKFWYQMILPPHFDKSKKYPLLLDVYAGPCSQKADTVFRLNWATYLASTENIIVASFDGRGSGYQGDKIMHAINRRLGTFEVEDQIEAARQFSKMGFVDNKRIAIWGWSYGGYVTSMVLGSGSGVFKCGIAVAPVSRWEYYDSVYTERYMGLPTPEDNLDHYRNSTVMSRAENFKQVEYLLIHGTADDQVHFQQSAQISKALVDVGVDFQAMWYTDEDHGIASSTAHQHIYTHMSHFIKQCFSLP

DP4 variant R125K [2] = biological target: T2, DP4 variant R125K (Homo sapiens, UniProt P27487, R125K); assay: as above; settings: substrate hydrolysis, 100 mM HEPES-buffer (pH 7.6), T = 30 °C
T2 construct: His(6)-37-766 hDP4 containing fractions were concentrated to 1 ml; made in house; host or cells: Pichia pastoris X-33 (vector pPICZα C, secreted)
T2 sequence (P27487 37-766 R125K): as the sequence (P27487 37-766 N710Q) above, with R89K, Q674N counted along it
Protocol: (§1) The reactions were performed in 100 mM HEPES buffer, pH 7.6 at 30°C in a total assay volume of 270 μl by using 96-well plates. […] Fluorescence was detected with a […]luor Plus (TECAN) at an excitation wavelength of 380 nm and an emission wavelength of 465 nm.

DP4 variant N710A [3] = biological target: T3, DP4 variant N710A (Homo sapiens, UniProt P27487, N710A); assay: as above; settings: for Km / kcat: N710A, substrate hydrolysis, 100 mM HEPES-buffer (pH 7.6), T = 30 °C
T3 construct: His(6)-37-766 hDP4 containing fractions were concentrated to 1 ml; made in house; host or cells: Pichia pastoris X-33 (vector pPICZα C, secreted)
T3 sequence (P27487 37-766 N710A): as the sequence (P27487 37-766 N710Q) above, with Q674A counted along it
Protocol: as §1

wild type DP4 [4] = biological target: T4, wild type DP4 (Homo sapiens, UniProt P27487); assay: as above; settings: substrate hydrolysis, 100 mM HEPES-buffer (pH 7.6), T = 30 °C
T4 construct: His(6)-37-766 hDP4 containing fractions were concentrated to 1 ml; made in house; host or cells: Pichia pastoris X-33 (vector pPICZα C, secreted)
T4 sequence (P27487 37-766): as the sequence (P27487 37-766 N710Q) above, with Q674N counted along it
Protocol: as §1

DP4 variant R125A [5] = biological target: T5, DP4 variant R125A (Homo sapiens, UniProt P27487, R125A); assay: as above; settings: substrate hydrolysis, 100 mM HEPES-buffer (pH 7.6), T = 30 °C
T5 construct: His(6)-37-766 hDP4 containing fractions were concentrated to 1 ml; made in house; host or cells: Pichia pastoris X-33 (vector pPICZα C, secreted)
T5 sequence (P27487 37-766 R125A): as the sequence (P27487 37-766 N710Q) above, with R89A, Q674N counted along it
Protocol: as §1

DP4 variant E205A [6] = biological target: T6, DP4 variant E205A (Homo sapiens, UniProt P27487, E205A); assay: as above; settings: substrate hydrolysis, 100 mM HEPES-buffer (pH 7.6), T = 30 °C
T6 construct: His(6)-37-766 hDP4 containing fractions were concentrated to 1 ml as described above; His6 (N); made in house; host or cells: Pichia pastoris X-33, vector pPICZα C (secreted)
T6 sequence (P27487 37-766 E205A): as the sequence (P27487 37-766 N710Q) above, with E169A, Q674N counted along it
Protocol: as §1

DP4 variant E206A [7] = biological target: T7, DP4 variant E206A (Homo sapiens, UniProt P27487, E206A); assay: as above; settings: substrate hydrolysis, 100 mM HEPES-buffer (pH 7.6), T = 30 °C
T7 construct: His(6)-37-766 hDP4 containing fractions were concentrated to 1 ml as described above; His6 (N); made in house; host or cells: Pichia pastoris X-33, vector pPICZα C (secreted)
T7 sequence (P27487 37-766 E206A): as the sequence (P27487 37-766 N710Q) above, with E170A, Q674N counted along it
Protocol: as §1

DP4 variant N710D [8] = biological target: T8, DP4 variant N710D (Homo sapiens, UniProt P27487, N710D); assay: as above; settings: substrate hydrolysis, 100 mM HEPES-buffer (pH 7.6), T = 30 °C
T8 construct: His(6)-37-766 hDP4 containing fractions were concentrated to 1 ml; made in house; host or cells: Pichia pastoris X-33 (vector pPICZα C, secreted)
T8 sequence (P27487 37-766 N710D): as the sequence (P27487 37-766 N710Q) above, with Q674D counted along it
Protocol: The reactions were performed in 100 mM HEPES buffer, pH 7.6 at 30°C in a total assay volume of 270 μl by using 96-well plates. […] Fluorescence was detected with a [sequence]luor Plus (TECAN) at an excitation wavelength of 380 nm and an emission wavelength of 465 nm.

DP4 variant N710Q [9] = biological target: T1, DP4 variant N710Q; assay: IC50 determination with substrate Gly-Pro-AMC; settings: bounds given in mM, 100 mM HEPES-buffer (pH 7.6), T = 30 °C, substrate Gly-Pro-AMC in the range of Km
Protocol: as §1

DP4 variant R125K [10] = biological target: T2, DP4 variant R125K; assay: IC50 determination with substrate Gly-Pro-AMC; settings: 100 mM HEPES-buffer (pH 7.6), T = 30 °C, substrate Gly-Pro-AMC in the range of Km
Protocol: as §1

DP4 variant N710A [11] = biological target: T3, DP4 variant N710A; assay: IC50 determination with substrate Gly-Pro-AMC; settings: bounds given in mM, 100 mM HEPES-buffer (pH 7.6), T = 30 °C, substrate Gly-Pro-AMC in the range of Km
Protocol: as §1

wild type DP4 [12] = biological target: T4, wild type DP4; assay: IC50 determination with substrate Gly-Pro-AMC; settings: 100 mM HEPES-buffer (pH 7.6), T = 30 °C, substrate Gly-Pro-AMC in the range of Km
Protocol: as §1

DP4 variant N710D [13] = biological target: T8, DP4 variant N710D; assay: IC50 determination with substrate Gly-Pro-AMC; settings: 100 mM HEPES-buffer (pH 7.6), T = 30 °C, substrate Gly-Pro-AMC in the range of Km
Protocol: as §1

DP4 variant R125A [14] = biological target: T5, DP4 variant R125A; assay: IC50 determination with substrate Gly-Pro-AMC; settings: 100 mM HEPES-buffer (pH 7.6), T = 30 °C, substrate Gly-Pro-AMC in the range of Km
Protocol: as §1

DP4 variant E205A [15] = biological target: T6, DP4 variant E205A; assay: IC50 determination with substrate Gly-Pro-AMC; settings: 100 mM HEPES-buffer (pH 7.6), T = 30 °C, substrate Gly-Pro-AMC in the range of Km
Protocol: as §1

DP4 variant E206A [16] = biological target: T7, DP4 variant E206A; assay: IC50 determination with substrate Gly-Pro-AMC; settings: bounds given in mM, 100 mM HEPES-buffer (pH 7.6), T = 30 °C, substrate Gly-Pro-AMC in the range of Km
Protocol: as §1

[17] = N710Q, substrate hydrolysis, 100 mM HEPES-buffer (pH 7.6), T = 30 °C

How did the Km (DP4 variant N710Q [1]; [17]) turn out when Cc1cc(=O)oc2cc(NC(=O)[C@H](C)NC(=O)[C@H](C)N)ccc12 [Ala-Ala-AMC] (H-Ala-Ala-{AMC}) was run?
Its Km is “No hydrolysis at concentrations < 10 mM”.

And the kcat (DP4 variant N710Q [1]; [17])?
The kcat was “No hydrolysis at concentrations < 10 mM”.

And the Km (DP4 variant R125K [2])?
The Km was 1500 µM.

What about the kcat (DP4 variant R125K [2]) of the same compound?
The kcat was 2.6 ± 0.09 s⁻¹.

And the Km (DP4 variant N710A [3])?
Its Km is 410 µM.

What about the kcat (DP4 variant N710A [3]) of the same compound?
The kcat was “(9.4 ± 0.06) · 10^−3 s^−1”.

And the Km (wild type DP4 [4])?
The Km was 550 µM.

What about the kcat (wild type DP4 [4]) of the same compound?
Its kcat is 5.7 ± 0.18 s⁻¹.

What about the Km (DP4 variant R125A [5]) of the same compound?
Its Km is 710 µM.

And the kcat (DP4 variant R125A [5])?
Its kcat is 2.3 ± 0.08 s⁻¹.

And the Km (DP4 variant E205A [6])?
Its Km is 4700 µM.

And the kcat (DP4 variant E205A [6])?
Its kcat is 0.15 ± 0.015 s⁻¹.

What about the Km (DP4 variant E206A [7]) of the same compound?
The Km was “No hydrolysis at concentrations < 10 mM”.

What about the kcat (DP4 variant E206A [7]) of the same compound?
The kcat was “No hydrolysis at concentrations < 10 mM”.

What about the Km (DP4 variant N710D [8]) of the same compound?
The Km was 1800 µM.

What about the kcat (DP4 variant N710D [8]) of the same compound?
The kcat was 0.05 ± 0.003 s⁻¹.

For Cc1cc(=O)oc2cc(NC(=O)[C@@H]3CCCN3C(=O)[C@H](C)N)ccc12 [Ala-Pro-AMC] (H-Ala-Pro-{AMC}), which “Change of Km-value in comparison to the wild type enzyme (decreased)” value (DP4 variant N710Q [1]; N710Q vs wild type) is on record?
The value was 100 fold.

And the “Drop of kcat-value in comparison to the wild type enzyme” value (DP4 variant N710Q [1]; N710Q vs wild type)?
The value was about 30 factor.

What about the kcat (DP4 variant N710Q [1]; [17]) of the same compound?
The kcat was 0.23 ± 0.01 s⁻¹.

What about the Km (DP4 variant R125K [2]) of the same compound?
Its Km is 38 µM.

What about the kcat (DP4 variant R125K [2]) of the same compound?
Its kcat is 37 ± 0.5 s⁻¹.

What about the “Change of Km-value in comparison to the wild type enzyme (decreased)” value (DP4 variant N710A [3]; N710A vs wild type) of the same compound?
Its value is 100 fold.

What about the “Drop of kcat-value in comparison to the wild type enzyme” value (DP4 variant N710A [3]; N710A vs wild type) of the same compound?
The value was about 30 factor.

What about the Km (DP4 variant N710A [3]) of the same compound?
The Km was 1700 µM.

And the kcat (DP4 variant N710A [3])?
The kcat was 0.74 ± 0.03 s⁻¹.

And the Km (wild type DP4 [4])?
The Km was 19 µM.

And the kcat (wild type DP4 [4])?
Its kcat is 32 ± 0.9 s⁻¹.

And the Km (DP4 variant R125A [5])?
Its Km is 37 µM.

What about the kcat (DP4 variant R125A [5]) of the same compound?
Its kcat is 48 ± 1.0 s⁻¹.

And the Km (DP4 variant E205A [6])?
Its Km is 240 µM.

What about the kcat (DP4 variant E205A [6]) of the same compound?
Its kcat is 17 ± 0.2 s⁻¹.

And the kcat (DP4 variant E206A [7])?
The kcat was 0.8 ± 0.05 s⁻¹.

What about the Km (DP4 variant E206A [7]; read-out: Km) of the same compound?
Its Km is 3400 µM.

What about the kcat (DP4 variant N710D [8]) of the same compound?
Its kcat is 19 ± 0.6 s⁻¹.

Which IC50 (DP4 variant N710Q [9]) does the source give for CC[C@H](C)[C@H](NC(=O)[C@@H]1CCCN1C(=O)[C@@H](N)C(C)(C)C)C(=O)O [t-Bu-Gly-Pro-Ile, t-Butyl-Gly-Pro-Ile] (H-[Tle]-Pro-Ile-OH) here?
Its IC50 is over 10 mM.

And the IC50 (DP4 variant R125K [10])?
The IC50 was 200 µM.

And the IC50 (DP4 variant N710A [11])?
Its IC50 is over 10 mM.

What about the IC50 (wild type DP4 [12]) of the same compound?
Its IC50 is 3.6 µM.

What about the IC50 (DP4 variant N710D [13]) of the same compound?
Its IC50 is 600 µM.

What about the IC50 (DP4 variant R125A [14]) of the same compound?
The IC50 was 400 µM.

And the IC50 (DP4 variant E205A [15])?
Its IC50 is 1700 µM.

What about the IC50 (DP4 variant E206A [16]) of the same compound?
The IC50 was over 10 mM.
